Among the data in patent publication EP3133117A1, “WATER-BASED POLYMER SYSTEM FOR LABELING ADHESIVE APPLICATIONS” (Henkel AG & Co. KGaA, priority 2015, dated 2017) are solubility and Solubility in water values, retold here.

≈ marks a conversion by molar mass, not a printed value. Like-named read-outs stand apart in the source and are kept apart here.

The nature of data set [1]: Solubility of the organic additives in water. As to conditions: for solubility: water, 25 °C, thermodynamic from solid.
Text: For the determination of the solubility of the organic additives described herein, the GC-based method described above in connection with the solubilities of the monomers may be used. […] The method is basically measuring residual amount of CD in a saturated solution after drying.
The conditions of data set [2]: cyclodextrins; values taken from Sabadini et al.; 25°C; cited from earlier work.

What is called solubility is how much of the substance goes into solution per volume. The low end stands for a poorly soluble substance, the high end for a readily soluble substance. Turning to `CC(=O)OCC(COC(C)=O)OC(C)=O` [1,2,3-propanetriol triacetate], the solubility in data set [1] is 72 mg/mL.
In turn, `CCCCCCCO` [Heptanol] returned a solubility in data set [1] of 1.74 mg/mL (≈ 15 mM).
With `OCCCCO` [1,4-butandiol], in data set [1] (additives other than cyclodextrins, 25°C), the Solubility in water entry is “miscible”.
In data set [1], `CCCCCO` [1-pentanol] registered a solubility of 22.4 mg/mL (≈ 254 mM).
`OC[C@H]1O[C@@H]2O[C@H]3[C@H](O)[C@@H](O)[C@@H](O[C@H]4[C@H](O)[C@@H](O)[C@@H](O[C@H]5[C@H](O)[C@@H](O)[C@@H](O[C@H]6[C@H](O)[C@@H](O)[C@@H](O[C@H]7[C@H](O)[C@@H](O)[C@@H](O[C@H]1[C@H](O)[C@H]2O)O[C@@H]7CO)O[C@@H]6CO)O[C@@H]5CO)O[C@@H]4CO)O[C@@H]3CO` [α-cyclodextrin]: the Solubility in water in data set [2] was 129.5 mg/mL (≈ 133 mM).
`OC[C@H]1O[C@@H]2O[C@H]3[C@H](O)[C@@H](O)[C@@H](O[C@H]4[C@H](O)[C@@H](O)[C@@H](O[C@H]5[C@H](O)[C@@H](O)[C@@H](O[C@H]6[C@H](O)[C@@H](O)[C@@H](O[C@H]7[C@H](O)[C@@H](O)[C@@H](O[C@H]8[C@H](O)[C@@H](O)[C@@H](O[C@H]9[C@H](O)[C@@H](O)[C@@H](O[C@H]1[C@H](O)[C@H]2O)O[C@@H]9CO)O[C@@H]8CO)O[C@@H]7CO)O[C@@H]6CO)O[C@@H]5CO)O[C@@H]4CO)O[C@@H]3CO` [γ-cyclodextrin]: the Solubility in water in data set [2] was 249.2 mg/mL (≈ 192 mM).
